Measurements taken from the supplement of paper PMC10627819.

How the values were obtained:
S. aureus DSM 20231 [1] = experiment: fitness (endpoint OD595 vs no drug) (fraction); higher = more growth
In short: (§1)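 Background-subtracted growth curves were the basis for fitness, taken as the optical density at entry into stationary phase over the robust mean of no-drug control wells. A cap of 1 was applied. The curves came from OD595 readings every 30 min for 14 h at 37 °C, in 384-well plates seeded at OD595 0.01 with 30 µl, or 55 µl for S. pneumoniae.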

S. aureus Newman [2] = experiment: as above
In short: as §1

S. pneumoniae D39V [3] = experiment: as above
In short: as §1

B. subtilis 168 = experiment: Bliss interaction score (quartile over a dose matrix) (fitness difference); higher = more antagonism (negative = synergy)
In short: (§2)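 Fitness was defined as normalised growth: OD595 at the start of stationary phase divided by the plate's robust no-drug mean and capped at 1. Single-drug fitness was inferred from combination measurements. The Bliss score is observed fitness minus the product of the single-drug values, summarised by quartiles across technical, biological and donor/recipient replicates.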

S. aureus DSM 20231 [4] = experiment: as above
In short: as §2

S. aureus Newman [5] = experiment: as above
In short: as §2

S. pneumoniae D39V [6] = experiment: as above
In short: as §2
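Throughout, for Bliss interaction score (quartile over a dose matrix): first quartile when negative (synergy) and third quartile when positive (antagonism).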

Cn1c2cccc(=O)c-2nc2ccccc21 [Pyocyanin] + CN[C@H](CC(C)C)C(=O)N[C@H]1C(=O)N[C@@H](CC(N)=O)C(=O)N[C@H]2C(=O)N[C@H]3C(=O)N[C@H](C(=O)N[C@H](C(=O)O)c4cc(O)cc(O)c4-c4cc3ccc4O)[C@H](O)c3ccc(c(Cl)c3)Oc3cc2cc(c3O[C@@H]2O[C@H](CO)[C@@H](O)[C@H](O)[C@H]2O[C@H]2C[C@](C)(N)[C@H](O)[C@H](C)O2)Oc2ccc(cc2Cl)[C@H]1O [Vancomycin]
Conditions	fitness
S. aureus DSM 20231 [1], first compound 1.25 µg/mL, partner 0.1875 µg/mL	0.796
S. aureus DSM 20231 [1], first compound 1.25 µg/mL, partner 0.375 µg/mL	0.856
S. aureus DSM 20231 [1], first compound 1.25 µg/mL, partner 0.75 µg/mL	0.921
S. aureus DSM 20231 [1], first compound 2.5 µg/mL, partner 0.1875 µg/mL	0.852
S. aureus DSM 20231 [1], first compound 2.5 µg/mL, partner 0.375 µg/mL	0.861
S. aureus DSM 20231 [1], first compound 2.5 µg/mL, partner 0.75 µg/mL	0.934
S. aureus DSM 20231 [1], first compound 5 µg/mL, partner 0.1875 µg/mL	0.659
S. aureus DSM 20231 [1], first compound 5 µg/mL, partner 0.375 µg/mL	0.745
S. aureus DSM 20231 [1], first compound 5 µg/mL, partner 0.75 µg/mL	0.726
S. aureus Newman [2], first compound 1.25 µg/mL, partner 0.1875 µg/mL	0.907
S. aureus Newman [2], first compound 1.25 µg/mL, partner 0.375 µg/mL	0.899
S. aureus Newman [2], first compound 1.25 µg/mL, partner 0.75 µg/mL	0.84
S. aureus Newman [2], first compound 2.5 µg/mL, partner 0.1875 µg/mL	0.855
S. aureus Newman [2], first compound 2.5 µg/mL, partner 0.375 µg/mL	0.768
S. aureus Newman [2], first compound 5 µg/mL, partner 0.75 µg/mL	0.393
S. pneumoniae D39V [3], first compound 0.325 µg/mL, partner 0.03125 µg/mL	≥ 1
S. pneumoniae D39V [3], first compound 0.325 µg/mL, partner 0.0625 µg/mL	0.994
S. pneumoniae D39V [3], first compound 0.325 µg/mL, partner 0.125 µg/mL	0.921
S. pneumoniae D39V [3], first compound 0.65 µg/mL, partner 0.03125 µg/mL	0.962
S. pneumoniae D39V [3], first compound 0.65 µg/mL, partner 0.0625 µg/mL	0.952
S. pneumoniae D39V [3], first compound 1.3 µg/mL, partner 0.03125 µg/mL	0.686
S. pneumoniae D39V [3], first compound 1.3 µg/mL, partner 0.0625 µg/mL	0.651

fitness, S. pneumoniae D39V [3], one replicate
Conditions	first compound 0.325 µg/mL	first compound 0.65 µg/mL
partner 0.25 µg/mL	0.584	0.724
partner 0.5 µg/mL	0.314	0.391

Conditions	Bliss interaction score
B. subtilis 168	-0.0201
S. aureus DSM 20231 [4]	0.0758
S. aureus Newman [5]	0.0784
S. pneumoniae D39V [6]	0.0635

Cn1c2cccc(=O)c-2nc2ccccc21 [Pyocyanin] + Cn1nnc(-c2ccc(-c3ccc(N4C[C@H](CO)OC4=O)cc3F)cn2)n1 [Tedizolid]
fitness
Conditions	partner 0.03125 µg/mL	partner 0.0625 µg/mL	partner 0.125 µg/mL	partner 0.25 µg/mL
S. aureus DSM 20231 [1], first compound 1.25 µg/mL	–	0.813	0.739	0.218
S. aureus DSM 20231 [1], first compound 2.5 µg/mL	–	0.8	0.701	0.242
S. aureus DSM 20231 [1], first compound 5 µg/mL	–	0.635	0.565	0.169
S. aureus Newman [2], first compound 1.25 µg/mL	–	0.853	0.789	–
S. aureus Newman [2], first compound 2.5 µg/mL	–	0.764	0.651	–
S. aureus Newman [2], first compound 5 µg/mL	–	–	0.248	0.161
S. pneumoniae D39V [3], first compound 0.325 µg/mL	0.976	0.978	0.798	–
S. pneumoniae D39V [3], first compound 0.65 µg/mL	0.97	0.952	0.844	–
S. pneumoniae D39V [3], first compound 1.3 µg/mL	0.753	0.731	0.652	–

fitness, S. pneumoniae D39V [3], one replicate
Conditions	first compound 0.325 µg/mL	first compound 0.65 µg/mL
partner 0.25 µg/mL	0.736	0.821
partner 0.5 µg/mL	0.344	0.545

Conditions	Bliss interaction score
B. subtilis 168	0.0439
S. aureus DSM 20231 [4]	0.0928
S. aureus Newman [5]	-0.065
S. pneumoniae D39V [6]	-0.0686

CN(N=O)C(=O)N[C@@H](C=O)[C@@H](O)[C@H](O)[C@H](O)CO [Streptozotocin] + CN[C@H](CC(C)C)C(=O)N[C@H]1C(=O)N[C@@H](CC(N)=O)C(=O)N[C@H]2C(=O)N[C@H]3C(=O)N[C@H](C(=O)N[C@H](C(=O)O)c4cc(O)cc(O)c4-c4cc3ccc4O)[C@H](O)c3ccc(c(Cl)c3)Oc3cc2cc(c3O[C@@H]2O[C@H](CO)[C@@H](O)[C@H](O)[C@H]2O[C@H]2C[C@](C)(N)[C@H](O)[C@H](C)O2)Oc2ccc(cc2Cl)[C@H]1O [Vancomycin]
fitness
Conditions	first compound 0.15 µg/mL	first compound 0.3 µg/mL	first compound 0.6 µg/mL	first compound 1.2 µg/mL	first compound 2.4 µg/mL	first compound 4.8 µg/mL
S. aureus DSM 20231 [1], partner 0.1875 µg/mL	0.861	0.757	0.716	–	–	–
S. aureus DSM 20231 [1], partner 0.375 µg/mL	0.912	0.845	0.767	–	–	–
S. aureus DSM 20231 [1], partner 0.75 µg/mL	0.946	0.895	0.839	–	–	–
S. aureus Newman [2], partner 0.1875 µg/mL	0.861	0.792	0.585	–	–	–
S. aureus Newman [2], partner 0.375 µg/mL	0.82	0.758	0.515	–	–	–
S. aureus Newman [2], partner 0.75 µg/mL	0.885	0.763	0.539	–	–	–
S. pneumoniae D39V [3], partner 0.03125 µg/mL	–	–	–	0.998	0.99	0.999
S. pneumoniae D39V [3], partner 0.0625 µg/mL	–	–	–	0.911	0.881	0.932
S. pneumoniae D39V [3], partner 0.125 µg/mL	–	–	–	0.746	0.757	0.794

fitness, S. pneumoniae D39V [3], one replicate
Conditions	first compound 1.2 µg/mL	first compound 2.4 µg/mL	first compound 4.8 µg/mL
partner 0.25 µg/mL	0.655	0.639	0.536
partner 0.5 µg/mL	0.327	0.333	0.424

Conditions	Bliss interaction score
B. subtilis 168	-0.0175
S. aureus DSM 20231 [4]	0.0534
S. aureus Newman [5]	-0.0371
S. pneumoniae D39V [6]	0.0398
